In patent US9428726B2, “Modified host cells with efflux pumps” (priority 2010, dated 2016):
Read-outs that look alike come from different tables or passages of the source.

Legend:
E. coli DH1 ΔacrAB [1] = tested on: E. coli DH1 ΔacrAB
Experimental: In order to screen the efflux pump library against a variety of biofuels we devised a competition-based strategy to select for pumps that improved biofuel tolerance (FIG. 1A). Cells containing plasmids with individual pumps were grown separately and then pooled so that all individual strains were represented equally. This pooled culture was then grown both with and without biofuel, and maintained through serial dilutions every 10-14 hours over a total of 96 hours. At each dilution time point, plasmids from each culture were isolated and a custom microarray was used to quantify the amount of each efflux pump plasmid present in the culture (Methods).
Pooled culture glycerol stocks were used to inoculate M9 minimal medium with 30 μg/ml kanamycin and 10 μM IPTG. The culture was then divided into tubes to a final volume of 5 ml and biofuel was added directly to the tubes. All conditions were prepared in triplicate. Cultures were grown at 37° C. with orbital shaking at 200 rpm for all experiments.
Every 10-14 hours the cultures were diluted 1:100 into 5 ml of fresh M9 minimal medium with kanamycin, IPTG, and biofuel (where applicable). For the time-course assay, cultures were spun down at the completion of a growth cycle and plasmids were isolated. For end point competition assays, plasmid was isolated from the culture after 72 hours of serial dilution.
Custom microarrays (NimbleGen, Roche, USA) were used to measure the relative quantities of the efflux pumps present in the plasmid DNA isolated from the competition cultures. Arrays were designed so that they contained probes for all HAE1 annotated efflux pumps from all sequenced bacterial genomes. 12×135K arrays were used to allow for 12 experiments per slide.
Plasmid DNA was labeled and hybridized following the protocol for NimbleGen Comparative Genomic Hybridization Microarrays with minor modifications (Supporting Methods). Data were normalized using the standard settings for RMA analysis in the NimbleScan software. Probe values were averaged using a custom Matlab script (Mathworks, Inc.). […] For the positive hybridization control, all library plasmids were prepared individually and combined in vitro in equal proportions. For the negative hybridization control, a plasmid with the same vector backbone as those in the library, but no efflux pump, was isolated from DH1 ΔacrAB. Both hybridization controls were labeled and hybridized to the array using the methods described above.
This required the use of a co-solvent in order to accurately pipette small volumes. In both cases dimethylformamide (DMF) was used as the co-solvent. […] Other biofuels were added directly without the use of a co-solvent.

E. coli DH1 ΔacrAB [2] = format: cell-based
Experimental: Individual strains were adapted to M9 minimal medium as described in the Supporting Methods. […] The biofuel being tested was added directly to the cultures and they were grown overnight at 37° C. with orbital shaking. For end point measurements, the optical density was measured after 14 hours of growth in triplicate 5 ml cultures. For growth curve measurements, cultures were grown in triplicate in 24-well plates with 800 μl per well and optical density was measured every 10 minutes with a plate reader (BioTek Synergy 4, USA).

## CCCCO [n-butanol]
E. coli DH1 ΔacrAB [1]; E. coli host, in words
  toxicity of the biofuel to cell growth: toxic
E. coli DH1 ΔacrAB [1]; added to pooled culture in M9 minimal medium, aimed at an inhibitory concentration that reduced growth by 25%
  biofuel level that inhibited growth: 0.5 % v/v
E. coli DH1 ΔacrAB [2]; top performing pump versus negative control, FIG. 3B and 3D
  effect of efflux pumps on tolerance to the biofuel (survival relative to pump-free negative control): none of the pumps we tested confer an advantage

B1: MexB: Pseudomonas aeruginosa PAO1 MexAB-OprM multidrug efflux pump (protein, UniProt P52002 1-1046, looked up)
Multidrug resistance protein …: MSKFFIDRPIFAWVIALVIMLAGGLSILSLPVNQYPAIAPPAIAVQVSYPGASAETVQDTVVQVIEQQMNGIDNLRYISSESNSDGSMTITVTFEQGTDPDIAQVQVQNKLQLATPLLPQEVQRQGIRVTKAVKNFLMVVGVVSTDGSMTKEDLSNYIVSNIQDPLSRTKGVGDFQVFGSQYSMRIWLDPAKLNSYQLTPGDVSSAIQAQNVQISSGQLGGLPAVKGQQLNATIIGKTRLQTAEQFENILLKVNPDGSQVRLKDVADVGLGGQDYSINAQFNGSPASGIAIKLATGANALDTAKAIRQTIANLEPFMPQGMKVVYPYDTTPVVSASIHEVVKTLGEAILLVFLVMYLFLQNFRATLIPTIAVPVVLLGTFGVLAAFGFSINTLTMFGMVLAIGLLVDDAIVVVENVERVMAEEGLSPREAARKSMGQIQGALVGIAMVLSAVFLPMAFFGGSTGVIYRQFSITIVSAMALSVIVALILTPALCATMLKPIEKGDHGEHKGGFFGWFNRMFLSTTHGYERGVASILKHRAPYLLIYVVIVAGMIWMFTRIPTAFLPDEDQGVLFAQVQTPPGSSAERTQVVVDSMREYLLEKESSSVSSVFTVTGFNFAGRGQSSGMAFIMLKPWEERPGGENSVFELAKRAQMHFFSFKDAMVFAFAPPSVLELGNATGFDLFLQDQAGVGHEVLLQARNKFLMLAAQNPALQRVRPNGMSDEPQYKLEIDDEKASALGVSLADINSTVSIAWGSSYVNDFIDRGRVKRVYLQGRPDARMNPDDLSKWYVRNDKGEMVPFNAFATGKWEYGSPKLERYNGVPAMEILGEPAPGLSSGDAMAAVEEIVKQLPKGVGYSWTGLSYEERLSGSQAPALYALSLLVVFLCLAALYESWSIPFSVMLVVPLGVIGALLATSMRGLSNDVFFQVGLLTTIGLSAKNAILIVEFAKELHEQGKGIVEAAIEACRMRLRPIVMTSLAFILGVVPLAISTGAGSGSQHAIGTGVIGGMVTATVLAIFWVPLFYVAVSTLFKDEASKQQASVEKGQ
E. coli DH1 ΔacrAB [1]; 2% geranyl acetate, serial dilution competition
  outcome of efflux pump in competition: survived the competition
E. coli DH1 ΔacrAB [1]; 2% α-pinene, 72 hours serial dilution
  outcome of efflux pump in competition: borderline survivor
E. coli DH1 ΔacrAB [2]; with 2% α-pinene, grown independently
  growth of individual pump-expressing strain: survives well in α-pinene for the first 10 hours
